Results on one compound are retold here after publication PMC12993615 (The journal of pain, 2024).

Structures are written as SMILES.

One may read the NOAEL as the highest dose or exposure tested at which no adverse effect was seen. The Ki is the dissociation constant of the complex between target and ligand, obtained from inhibition or displacement. Read a low Ki as tighter binding.

A short description of one series: in vivo. The conditions noted are these: both sexes, beagle, dog, po, 500 mg/kg. An excerpt: Examined parameters to assess toxicity included clinical observations, mortality and moribundity cheques, body weights, food consumption, electrocardiogram, TK, clinical chemistry, haematology, coagulation, urinalysis, gross pathology, organ weights, and histopathology.

The nature of series [1]: Prevention of OIPN, body weight. It counts as in vivo, male Sprague Dawley rats. The following applies: 10 mg/kg BID, P < .05. From the text: Pain measurements were made on Days 5/6 (when neuropathy has normally developed) and at the end of the study. […] Terminal plasma samples were taken for bioanalysis and proteomics (Somalogic). Brain regions involved in pain processing, that is, prefrontal cortex (PFC), periaqueductal grey (PAG), whole spinal cords (SC), and L4-L6 dorsal root ganglia, were collected for lipidomic and genomic (Genewiz, China) analyses.

The subject of series [2] is paclitaxel-induced peripheral neuropathy. The conditions noted are these: male and female rats, similar efficacy; cited from earlier work.
The target of the next series is T1, FABP4 (Homo sapiens, UniProt P15090).
T1 construct: purchased Cayman Chemical
T1 sequence (P15090 whole entry, species assumed): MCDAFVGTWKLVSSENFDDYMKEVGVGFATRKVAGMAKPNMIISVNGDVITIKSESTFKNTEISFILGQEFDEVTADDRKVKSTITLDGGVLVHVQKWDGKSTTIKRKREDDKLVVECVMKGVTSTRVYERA
The series can be described thus: FABP4 binding, commercially available kit (Cayman Chemical). The conditions noted are these: commercial kit. On the procedure:
Purified FABPs were incubated with 11-(dansylamino)undecanoic acid (DAUDA) (FABP3, FABP5) or 8-anilino-1-naphthalenesulfonic acid (ANS) (FABP7) in the presence or absence of FABP inhibitors (.01–200 μM) in the binding assay buffer. FABP4 binding was assessed using a commercially available kit (Cayman Chemical, Ann Arbor). In all cases, arachidonic acid (10 μM) was included to account for maximal probe displacement. Loss of fluorescence intensity was monitored with an F5 Filtermax Multi-Mode Microplate Reader (Molecular Devices, Sunnyvale) using the following excitation and emission wavelengths (DAUDA: ex./em.= 360/535 nm; ANS: ex./em. = 360/465 nm). Following background subtraction, the fluorescence intensity values were normalised and analyzed via a one-site binding model using the GraphPadPrism (version 9.2). Ki values were determined using the following equation: Ki= IC50/(1 + ([Probe]/Kd).

For series [3], the system named is oxaliplatin-induced thermal hyperalgesia. The series can be described thus: 7-day treatment of established OIPN, cold plate latency. It counts as in vivo, male Sprague Dawley rats. The conditions noted are these: 7 days dosing, vehicle close to HBL by Day 14. The method, then:
Male Sprague Dawley rats (150–210 g) were housed in groups of 4 in intra-ventilated Perspex home cages. Humidity, temperature (21 ± 1 °C), and lighting (light-dark cycle of 12:12 hours) were controlled and maintained in the home cages, with food and water available ad libitum. Rats acclimatised to the home cages for at least 1 week. All experiments were carried out according to the Animals (Scientific Procedures) Act, 1986 (U.K. Government Home Office). The study was performed under the Home Office project licence number PP0847012. OIPN was established with a single dose of OXA (10 mg/kg, IP). […] Body weight was monitored throughout the study, and terminal plasma and whole brain samples were taken for bioanalysis. Thermal hyperalgesia was assessed using a cold plate (Bioseb, France) set at a fixed temperature of 15 °C. Latency to the first escape behaviour from the plate was measured indicating discomfort to the thermal stimulation. Escape behaviours typically consist of paw licking, jumping, or withdrawal. The maximal threshold of latency was set at 150 seconds. To acquire baseline readings, pain behaviour was assessed on 3 consecutive days (Days −3, −2, −1). The mean of Day −2 and Day −1 was considered the healthy baseline (HBL) prior to OIPN induction. […] NPB expressed as a percentage change from HBL was calculated as follows (HBL-NPB)/HBL*100. […]

The target of series [4] is δ [DOP; delta opioid receptor] (Homo sapiens, UniProt P41143). The series can be described thus: Secondary pharmacology panel (87 targets). The conditions noted are these: test concentration 30 µM. It counts as binding. From the text: (§1) Findings were considered significant if ≥50% inhibition of ligand binding or ≥50% stimulation/inhibition were shown in biochemical assays. Those receptors with values ≥50% were further evaluated for binding and functional half-maximal inhibitory concentrations (IC50).
δ [DOP; delta opioid receptor], sequence (P41143 whole entry): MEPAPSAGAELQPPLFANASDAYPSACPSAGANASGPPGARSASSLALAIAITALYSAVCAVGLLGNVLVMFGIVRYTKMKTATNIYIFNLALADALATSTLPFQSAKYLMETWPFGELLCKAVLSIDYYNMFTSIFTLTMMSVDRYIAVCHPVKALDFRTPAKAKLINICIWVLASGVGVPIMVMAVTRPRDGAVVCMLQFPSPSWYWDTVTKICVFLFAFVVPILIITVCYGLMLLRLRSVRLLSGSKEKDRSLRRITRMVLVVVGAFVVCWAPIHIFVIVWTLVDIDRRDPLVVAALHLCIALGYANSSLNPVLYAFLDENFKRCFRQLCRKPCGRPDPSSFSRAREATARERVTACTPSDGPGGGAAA

In series [5] the target is T2, CCK1 [cholecystokinin A receptor] (Homo sapiens, UniProt P32238).
T2 sequence (P32238 1-428): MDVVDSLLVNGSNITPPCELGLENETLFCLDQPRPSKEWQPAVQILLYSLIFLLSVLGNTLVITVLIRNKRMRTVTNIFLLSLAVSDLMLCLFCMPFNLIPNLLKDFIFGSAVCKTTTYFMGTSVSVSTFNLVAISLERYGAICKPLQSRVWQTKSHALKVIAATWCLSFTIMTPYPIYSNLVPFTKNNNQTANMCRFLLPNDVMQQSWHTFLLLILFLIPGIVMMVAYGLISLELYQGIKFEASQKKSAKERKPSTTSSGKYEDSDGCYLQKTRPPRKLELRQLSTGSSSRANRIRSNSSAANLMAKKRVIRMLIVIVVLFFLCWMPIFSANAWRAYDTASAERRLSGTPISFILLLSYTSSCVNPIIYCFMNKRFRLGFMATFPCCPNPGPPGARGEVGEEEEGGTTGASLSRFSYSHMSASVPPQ
The experiment in a line: Secondary pharmacology panel (87 targets). The conditions noted are these: test concentration 30 µM. It counts as binding.
Text: as §1

The target of series [6] is T3, CCK2 [cholecystokinin B receptor] (Homo sapiens, UniProt P32239).
T3 sequence (P32239 1-447): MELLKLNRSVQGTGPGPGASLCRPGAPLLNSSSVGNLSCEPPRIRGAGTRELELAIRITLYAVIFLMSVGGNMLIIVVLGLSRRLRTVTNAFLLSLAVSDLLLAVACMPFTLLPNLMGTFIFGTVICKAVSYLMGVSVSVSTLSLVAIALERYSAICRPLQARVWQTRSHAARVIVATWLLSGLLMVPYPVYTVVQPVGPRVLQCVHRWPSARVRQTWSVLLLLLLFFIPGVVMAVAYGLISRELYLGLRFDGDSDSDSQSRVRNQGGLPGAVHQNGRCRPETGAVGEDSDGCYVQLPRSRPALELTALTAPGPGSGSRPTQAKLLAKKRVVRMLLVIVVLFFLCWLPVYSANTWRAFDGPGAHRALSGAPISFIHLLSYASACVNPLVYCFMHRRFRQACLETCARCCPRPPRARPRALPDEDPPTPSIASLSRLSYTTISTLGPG
The experiment in a line: Secondary pharmacology panel (87 targets). The conditions noted are these: test concentration 30 µM. The format is binding.
Text: as §1

In another series the target is T4, cathepsin G (Homo sapiens, UniProt P08311).
T4 sequence (P08311 21-255): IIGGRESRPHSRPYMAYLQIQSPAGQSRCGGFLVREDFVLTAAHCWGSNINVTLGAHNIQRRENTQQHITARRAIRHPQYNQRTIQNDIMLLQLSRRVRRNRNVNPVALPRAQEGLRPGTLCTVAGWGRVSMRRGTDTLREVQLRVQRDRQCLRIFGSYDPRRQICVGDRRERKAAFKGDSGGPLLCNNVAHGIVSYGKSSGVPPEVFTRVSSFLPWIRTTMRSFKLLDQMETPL
The series can be described thus: Secondary pharmacology panel (87 targets). It counts as binding. The conditions noted are these: test concentration 30 µM.
Text: as §1

Turning to `COc1ccccc1[C@@H]1[C@H](C(=O)O)[C@@H](c2ccccc2OC)[C@H]1C(=O)OC1Cc2ccccc2C1` [ART26.12, (+)–3-Indan-2-yloxycarbonyl-2,4-bis(2-methoxyphenyl)cyclobutanecarboxylic acid], in “in vivo”, the NOAEL at 14 days came out at 1000 mg/kg/day. For the same compound, the “body weight on Day 5 versus Day 0” value in series [1] is given as “significantly higher body weight than Day 0”. For the same compound, in series [2], the “effect on paclitaxel-induced peripheral neuropathy” value is “prevents paclitaxel-induced peripheral neuropathy”. Also, on FABP4, the Ki is greater than 100 µM. The cold plate latency result in series [3] was “no effect on cold plate latency”. Besides, in series [4], the “binding to δ (DOP) in secondary pharmacology screening” value is “greater than 50%”. The “binding to CCK1 in secondary pharmacology screening” value in series [5] is “greater than 50%”. For the same compound, the “binding to CCK2 in secondary pharmacology screening” value in [6] is “greater than 50%”. At cathepsin G, the “binding to cathepsin G in secondary pharmacology screening” value is given as “greater than 50%”.
